Measurements from patent US10722514B2 (FLX Bio, Inc., priority 2017, dated 2020).

Target: T1, recombinant full-length USP7 (Homo sapiens, UniProt Q93009)
T1 construct: A 25 μl reaction volume containing recombinant full-length USP7 (62 pM)
Experiment: USP7-mediated ubiquitin-rhodamine cleavage assay
Type: biochemical
Conditions: recombinant full-length USP7 62 pM; ubiquitin-rhodamine 100 nM; 30-minute incubation with compound, 1 hour reaction at room temperature; read-out: Potency: USP7 IC50
Method in brief: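 IC50 values came from fluorescence measured after a 1 h room-temperature reaction of 62 pM enzyme with 100 nM ubiquitin-rhodamine, following 30 min compound preincubation; fits used four parameters.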

T1 sequence (Q93009 whole entry): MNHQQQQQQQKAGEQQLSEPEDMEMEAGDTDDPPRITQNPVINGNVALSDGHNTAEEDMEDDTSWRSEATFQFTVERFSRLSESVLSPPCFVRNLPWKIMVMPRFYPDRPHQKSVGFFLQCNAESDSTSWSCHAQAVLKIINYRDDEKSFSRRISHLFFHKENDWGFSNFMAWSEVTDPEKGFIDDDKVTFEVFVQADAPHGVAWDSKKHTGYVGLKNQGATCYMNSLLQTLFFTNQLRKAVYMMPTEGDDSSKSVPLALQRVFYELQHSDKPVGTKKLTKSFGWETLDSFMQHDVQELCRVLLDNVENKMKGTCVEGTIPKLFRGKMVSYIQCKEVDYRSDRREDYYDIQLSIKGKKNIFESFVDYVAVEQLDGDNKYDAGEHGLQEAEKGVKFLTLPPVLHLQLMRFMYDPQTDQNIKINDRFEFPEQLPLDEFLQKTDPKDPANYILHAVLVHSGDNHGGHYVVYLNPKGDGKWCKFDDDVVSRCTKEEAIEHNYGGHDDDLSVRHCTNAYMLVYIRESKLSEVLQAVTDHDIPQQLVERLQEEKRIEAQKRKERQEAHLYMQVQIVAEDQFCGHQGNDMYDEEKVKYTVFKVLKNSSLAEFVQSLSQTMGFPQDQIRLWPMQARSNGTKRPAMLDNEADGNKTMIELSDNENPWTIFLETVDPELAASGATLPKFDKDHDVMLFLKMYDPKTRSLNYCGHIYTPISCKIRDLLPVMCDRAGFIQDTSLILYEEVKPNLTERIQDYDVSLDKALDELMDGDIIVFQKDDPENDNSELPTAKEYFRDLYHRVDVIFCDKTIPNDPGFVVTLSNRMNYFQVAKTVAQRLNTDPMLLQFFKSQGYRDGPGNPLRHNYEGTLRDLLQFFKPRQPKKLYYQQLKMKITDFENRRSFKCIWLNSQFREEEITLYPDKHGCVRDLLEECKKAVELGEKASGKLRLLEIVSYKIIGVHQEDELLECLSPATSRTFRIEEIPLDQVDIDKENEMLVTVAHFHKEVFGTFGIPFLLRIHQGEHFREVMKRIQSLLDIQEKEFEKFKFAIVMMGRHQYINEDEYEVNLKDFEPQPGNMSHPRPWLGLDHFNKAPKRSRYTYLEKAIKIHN

SMILES	IC50 [µM]
Cc1cc(Cl)cc(-c2ncnc3cc(Cn4c(=O)ccn(C)c4=O)sc23)c1OC1CCNCC1 [Example 232, 3-((4-(5-Chloro-3-methyl-2-(piperidin-4-yloxy)phenyl)thieno[3,2-d]pyrimidin-6-yl)methyl)-1-methylpyrimidine-2,4(1H,3H)-dione]	< 1
CCO[C@H]1CNC[C@H]1Oc1c(C)cc(Cl)cc1-c1ccnc2cc(CO)sc12 [Example 73, (7-(5-Chloro-2-(((3R,4S)-4-ethoxypyrrolidin-3-yl)oxy)-3-methylphenyl)thieno[3,2-b]pyridin-2-yl)methanol]	10 to 30
CCC(O)c1cc2nccc(-c3cc(Cl)cc(C)c3OCC3CN(C)C3)c2s1 (stereo not drawn) [Example 3, 1-(7-(5-Chloro-3-methyl-2-((1-methylazetidin-3-yl)methoxy)phenyl)thieno[3,2-b]pyridin-2-yl)propan-1-ol]	10 to 30
CN[C@H]1CC[C@@H](Oc2c(C)cc(Cl)cc2-c2ccnc3cc(CO)sc23)CC1 [Example 247, (7-(5-Chloro-3-methyl-2-(((l s,4s)-4-(methylamino)cyclohexyl)oxy)phenyl)thieno[3,2-b]pyridin-2-yl)methanol]	10 to 30
Cc1cc(C#N)cc(-c2ncnc3cc(CO)sc23)c1O[C@H]1CCCNC1 [Example 183, (S)-3-(6-(Hydroxymethyl)thieno[3,2-d]pyrimidin-4-yl)-5-methyl-4-(piperidin-3-yloxy)benzonitrile]	1 to 10
Cc1cc(Cl)cc(-c2ccnc3cc(Cn4c(=O)ccn(C)c4=O)sc23)c1O[C@H]1C[C@H](N)C1 [Example 7, 3-((7-(2-((1r,3r)-3-Aminocyclobutoxy)-5-chloro-3-methylphenyl)thieno[3,2-b]pyridin-2-yl)methyl)-1-methylpyrimidine-2,4(1H,3H)-dione]	< 1
Cc1cc(C#N)cc(-c2ccnc3cc(CN4C(=O)C5C6CCC(C6)C5C4=O)sc23)c1O[C@@H]1CNC[C@@H]1F (stereo partly drawn) [Example 112, 3-(2-((1,3-Dioxooctahydro-2H-4,7-methanoisoindol-2-yl)methyl)thieno[3,2-b]pyridin-7-yl)-4-(((3R,4S)-4-fluoropyrrolidin-3-yl)oxy)-5-methylbenzonitrile]	< 1
Cc1cc(Cl)cc(-c2ccnc3cc(Cn4c(=O)ccn(CC(F)(F)F)c4=O)sc23)c1O[C@H]1C[C@H](N2CCOCC2)C1 [Example 278, 3-((7-(5-Chloro-3-methyl-2-((1r,3r)-3-morpholinocyclobutoxy)phenyl)thieno[3,2-b]pyridin-2-yl)methyl)-1-(2,2,2-trifluoroethyl)pyrimidine-2,4(1H,3H)-dione]	< 1
C[C@H]1CNCC[C@H]1Oc1ccccc1-c1ccnc2cc(Cn3c(=O)ccn(CC(F)(F)F)c3=O)sc12 [Example 292, 3-[[7-[2-[[(3S,4R)-3-methyl-4-piperidyl]oxy]phenyl]thieno[3,2-b]pyridin-2-yl]methyl]-1-(2,2,2-trifluoroethyl)pyrimidine-2,4-dione]	< 1
Cc1cc(Cl)cc(-c2ccnc3cc(CN4C(=O)OC(C)(C)C4=O)sc23)c1O[C@@H]1CNC[C@@H]1F [Example 133, 3-((7-(5-Chloro-2-(((3R,4S)-4-fluoropyrrolidin-3-yl)oxy)-3-methylphenyl)thieno[3,2-b]pyridin-2-yl)methyl)-5,5-dimethyloxazolidine-2,4-dione]	< 1
Cc1cc(Cl)cc(-c2ncnc3cc(CN4C(=O)CCC4=O)sc23)c1O[C@H]1CCCNC1 [Example 230, (S)-1-((4-(5-Chloro-3-methyl-2-(piperidin-3-yloxy)phenyl)thieno[3,2-d]pyrimidin-6-yl)methyl)pyrrolidine-2,5-dione]	< 1

The next lines start with the values.

IC50 [µM]	SMILES
< 1	CCC1(C)CC(=O)N(Cc2cc3ncnc(-c4cc(Cl)cc(C)c4O[C@@H]4CNC[C@@H]4F)c3s2)C1=O (stereo partly drawn) [Example 381, 1-[[4-[5-chloro-2-[(3R,4S)-4-fluoropyrrolidin-3-yl]oxy-3-methyl-phenyl]thieno[3,2-d]pyrimidin-6-yl]methyl]-3-ethyl-3-methyl-pyrrolidine-2,5-dione; 2,2,2-trifluoroacetic acid]
< 1	Cc1cc(Cl)cc(-c2ccnc3cc(CN4C(=O)CCC4=O)sc23)c1O[C@@H]1CN(CCO)C[C@@H]1F [Example 302, 1-[[7-[5-chloro-2-[(3R,4S)-4-fluoro-1-(2-hydroxyethyl)pyrrolidin-3-yl]oxy-3-methyl-phenyl]thieno[3,2-b]pyridin-2-yl]methyl]pyrrolidine-2,5-dione]
< 1	Cc1cc(Cl)cc(-c2ccnc3cc(CN4C(=O)C5C(C4=O)C5(C)C)sc23)c1O[C@@H]1CNCC[C@@H]1C (stereo partly drawn) [Example 340, 3-[[7-[5-chloro-3-methyl-2-[[(3S,4S)-4-methyl-3-piperidyl]oxy]phenyl]thieno[3,2-b]pyridin-2-yl]methyl]-6,6-dimethyl-3-azabicyclo[3.1.0]hexane-2,4-dione]
< 1	Cc1cc(Cl)cc(-c2ccnc3cc(CN4C(=O)C5CC5C4=O)sc23)c1O[C@@H]1CCNC[C@H]1F (stereo partly drawn) [Example 293, 3-[[7-[5-chloro-2-[[(3R,4R)-3-fluoro-4-piperidyl]oxy]-3-methyl-phenyl]thieno[3,2-b]pyridin-2-yl]methyl]-3-azabicyclo[3.1.0]hexane-2,4-dione; 2,2,2-trifluoroacetic acid]

Same assay, conditions: recombinant full-length USP7 62 pM; ubiquitin-rhodamine 100 nM; 30-minute incubation, 1 hour reaction at room temperature; read-out: Potency (USP7 IC50)

IC50 [µM]	SMILES
< 1	Cc1cc(Cl)cc(-c2ccnc3cc(Cn4c(=O)ccn(CC(F)(F)F)c4=O)sc23)c1OC1CC2(COCCN2)C1 (stereo not drawn) [Example 698, 3-[[7-[5-chloro-3-methyl-2-(8-oxa-5-azaspiro[3.5]nonan-2-yloxy)phenyl]thieno[3,2-b]pyridin-2-yl]methyl]-1-(2,2,2-trifluoroethyl)pyrimidine-2,4-dione]

Same assay, conditions: recombinant full-length USP7 62 pM; ubiquitin-rhodamine 100 nM; 30-minute pre-incubation, 1 hour reaction at room temperature; read-out: Potency (USP7 IC50)

SMILES	IC50 [µM]
Cc1cc(Cl)cc(-c2ccnc3cc(Cn4c(=O)ccn(CC(F)(F)F)c4=O)sc23)c1OC1CC(C)(N2CCOCC2)C1 (stereo not drawn) [Example 613, 3-[[7-[5-chloro-3-methyl-2-(3-methyl-3-morpholino-cyclobutoxy)phenyl]thieno[3,2-b]pyridin-2-yl]methyl]-1-(2,2,2-trifluoroethyl)pyrimidine-2,4-dione; 2,2,2-trifluoroacetic acid]	< 1
Cc1cc(Cl)cc(-c2ccnc3cc(Cn4c(=O)ccn(CC(F)(F)F)c4=O)sc23)c1OC1CCCC1 [Example 664, 3-[[7-[5-chloro-2-(cyclopentoxy)-3-methyl-phenyl]thieno[3,2-b]pyridin-2-yl]methyl]-1-(2,2,2-trifluoroethyl)pyrimidine-2,4-dione]	< 1

The next lines start with the values.

IC50 [µM]	SMILES
< 1	CCn1ccc(=O)n(Cc2cc3nccc(-c4cc(Cl)cc(C)c4O[C@H]4CCCNC4)c3s2)c1=O [Example 423, 3-[[7-[5-chloro-3-methyl-2-[[(3S)-3-piperidyl]oxy]phenyl]thieno[3,2-b]pyridin-2-yl]methyl]-1-ethyl-pyrimidine-2,4-dione]
< 1	CCN1CCC[C@H](Oc2c(C)cc(Cl)cc2-c2ccnc3cc(Cn4c(=O)ccn(C)c4=O)sc23)CC1 [Example 493, 3-[[7-[5-chloro-2-[(4S)-1-ethylazepan-4-yl]oxy-3-methyl-phenyl]thieno[3,2-b]pyridin-2-yl]methyl]-1-methyl-pyrimidine-2,4-dione]
< 1	Cc1cc(Cl)cc(-c2ncnc3cc(Cn4c(=O)ccn(C(C)C)c4=O)sc23)c1O[C@@H]1CCN(C)C[C@@H]1C [Example 510, 3-[[4-[5-chloro-2-[[(3S,4R)-1,3-dimethyl-4-piperidyl]oxy]-3-methyl-phenyl]thieno[3,2-d]pyrimidin-6-yl]methyl]-1-isopropyl-pyrimidine-2,4-dione]
< 1	Cc1cc(Cl)cc(-c2ccnc3cc(Cn4c(=O)ccn(CC(F)(F)F)c4=O)sc23)c1OC1CN2CCC1C2 [Example 589, 3-[[7-[2-[[(1S,3S,4R)-1-azabicyclo[2.2.1]heptan-3-yl]oxy]-5-chloro-3-methyl-phenyl]thieno[3,2-b]pyridin-2-yl]methyl]-1-(2,2,2-trifluoroethyl)pyrimidine-2,4-dione]
< 1	Cc1cc(Cl)cc(-c2ccnc3cc(Cn4c(=O)ccn(C(C)C)c4=O)sc23)c1OC1CN2CCC1C2 [Example 590, 3-[[7-[2-[[(1S,3S,4R)-1-azabicyclo[2.2.1]heptan-3-yl]oxy]-5-chloro-3-methyl-phenyl]thieno[3,2-b]pyridin-2-yl]methyl]-1-isopropyl-pyrimidine-2,4-dione]
< 1	Cc1cc(Cl)cc(-c2ccnc3cc(Cn4c(=O)ccn(C)c4=O)sc23)c1OC1CN2CCC1C2 [Example 529, 3-[[7-[2-[[(1R,3R,4S)-1-azabicyclo[2.2.1]heptan-3-yl]oxy]-5-chloro-3-methyl-phenyl]thieno[3,2-b]pyridin-2-yl]methyl]-1-methyl-pyrimidine-2,4-dione]
< 1	Cc1cc(Cl)cc(-c2ccnc3cc(Cn4c(=O)ccn(CC(F)(F)F)c4=O)sc23)c1O[C@H]1CCNC[C@@H]1C [Example 629, 3-[[7-[5-chloro-3-methyl-2-[[(3S,4S)-3-methyl-4-piperidyl]oxy]phenyl]thieno[3,2-b]pyridin-2-yl]methyl]-1-(2,2,2-trifluoroethyl)pyrimidine-2,4-dione]
< 1	COC(=O)[C@@H]1C[C@H](Oc2c(C)cc(Cl)cc2-c2ccnc3cc(Cn4c(=O)ccn(CC(F)(F)F)c4=O)sc23)CN1 [Example 652, methyl (2S,4S)-4-[4-chloro-2-[2-[[2,6-dioxo-3-(2,2,2-trifluoroethyl)pyrimidin-1-yl]methyl]thieno[3,2-b]pyridin-7-yl]-6-methyl-phenoxy]pyrrolidine-2-carboxylate]
< 1	Cc1cc(Cl)cc(-c2ccnc3cc(Cn4c(=O)ccn(C)c4=O)sc23)c1OC1CCCNCC1F (stereo not drawn) [Example 471, 3-[[7-[5-chloro-2-(3-fluoroazepan-4-yl)oxy-3-methyl-phenyl]thieno[3,2-b]pyridin-2-yl]methyl]-1-methyl-pyrimidine-2,4-dione]
